Measurements as given in the supplement of paper PMC10307832.

Tests used:
Experiment in all cases: relative viability (nuclei count vs DMSO), 5 days (fraction); higher = more cells survive
[1] = compound: C1CCC(CC1)N(CCNCCC2=C3C(=C(C=C2)O)NC(=O)CO3)C(=O)CCNCCC4=CC(=C(C=C4)Cl)Cl [AZ505] + C[C@@H](Oc1cc(-c2cnn(C3CCNCC3)c2)cnc1N)c1c(Cl)ccc(F)c1Cl [Crizotinib] (partner 1 µM)
Method in brief: (§1)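 Dosing by pin tool came one day after lung cancer cell lines were seeded in 1536-well plates, using either one drug or a fixed anchor-drug dose plus five library-drug doses (not always all listed) in √10 steps. After 5 days, nuclei were counted on 4× images. Relative viability is treated-well nuclei count divided by vehicle-well nuclei count, and values are medians of duplicate plates.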

[2] = compound: C1CCC(CC1)N(CCNCCC2=C3C(=C(C=C2)O)NC(=O)CO3)C(=O)CCNCCC4=CC(=C(C=C4)Cl)Cl [AZ505] + C[C@]1(O)C[C@@H](c2nc(-c3ccc4ccc(-c5ccccc5)nc4c3)c3c(N)nccn32)C1 [Linsitinib] (partner 1 µM)
Method in brief: as §1

[3] = compound: Cn1c(=O)n(-c2ccc(C(C)(C)C#N)cc2)c2c3cc(-c4cnc5ccccc5c4)ccc3ncc21 [Dactolisib] + CC(=O)c1c(C)c2cnc(Nc3ccc(N4CCNCC4)cn3)nc2n(C2CCCC2)c1=O [Palbociclib] (partner 0.5 µM)
Method in brief: as §1

[4] = compound: Cn1c(=O)n(-c2ccc(C(C)(C)C#N)cc2)c2c3cc(-c4cnc5ccccc5c4)ccc3ncc21 [Dactolisib] + Nc1ncn([C@H]2C[C@H](O)[C@@H](CO)O2)c(=O)n1 [Decitabine] (partner 2 µM)
Method in brief: as §1

Cell Line | relative viability ([1]; first compound 0.08 µM) | relative viability ([1]; first compound 0.253 µM) | relative viability ([1]; first compound 0.8 µM) | relative viability ([1]; first compound 2.53 µM) | relative viability ([1]; first compound 8 µM) | relative viability ([2]; first compound 0.08 µM) | relative viability ([2]; first compound 0.253 µM) | relative viability ([2]; first compound 0.8 µM) | relative viability ([2]; first compound 2.53 µM) | relative viability ([2]; first compound 8 µM) | relative viability ([3]; first compound 0.002 µM) | relative viability ([3]; first compound 0.006325 µM) | relative viability ([3]; first compound 0.02 µM) | relative viability ([3]; first compound 0.06325 µM) | relative viability ([3]; first compound 0.2 µM) | relative viability ([4]; first compound 0.002 µM) | relative viability ([4]; first compound 0.006325 µM) | relative viability ([4]; first compound 0.02 µM) | relative viability ([4]; first compound 0.06325 µM) | relative viability ([4]; first compound 0.2 µM)
LK-2 | 0.234 | 0.237 | 0.211 | 0.21 | 0.215 | 0.408 | 0.703 | 0.578 | 0.427 | 0.812 | 0.513 | 0.653 | 0.491 | 0.212 | 0.167 | 0.347 | 0.305 | 0.335 | 0.159 | 0.142
LOU-NH91 | 0.713 | 0.723 | 0.722 | 0.778 | 0.72 | 0.838 | 0.92 | 0.857 | 0.915 | 0.962 | 0.532 | 0.548 | 0.549 | 0.524 | 0.52 | 0.772 | 0.791 | 0.795 | 0.623 | 0.565
LU99A | 0.474 | 0.592 | 0.594 | 0.638 | 0.575 | 0.524 | 0.647 | 0.507 | 0.573 | 0.565 | 0.419 | 0.37 | 0.297 | 0.216 | 0.181 | 0.906 | 0.723 | 0.602 | 0.373 | 0.261
LXF-289 | 0.738 | – | 0.812 | 0.788 | 0.762 | 0.884 | – | 0.973 | 0.943 | 0.96 | 0.622 | 0.591 | 0.585 | 0.522 | 0.381 | 0.455 | 0.4 | 0.388 | 0.357 | 0.399
NCI-H23 | 0.502 | – | 0.443 | 0.638 | 0.557 | 0.561 | – | 0.651 | 0.554 | 0.545 | 0.464 | 0.383 | 0.37 | 0.189 | 0.191 | 0.295 | 0.296 | 0.316 | 0.263 | 0.234
NCI-H322M | 0.93 | 0.786 | 0.878 | 0.828 | 0.931 | 0.895 | 0.863 | 0.983 | 0.981 | 0.95 | 0.487 | 0.476 | 0.415 | 0.387 | 0.415 | 0.759 | 0.712 | 0.631 | 0.661 | 0.608
NCI-H358 | 0.566 | 0.572 | 0.551 | 0.536 | 0.371 | 0.733 | 0.689 | 0.689 | 0.752 | 0.669 | 0.141 | 0.146 | 0.134 | 0.112 | 0.096 | 0.303 | 0.204 | 0.202 | 0.141 | 0.127
NCI-H441 | 0.615 | 0.823 | 0.995 | 0.699 | 0.738 | 0.513 | 0.51 | 0.662 | 0.543 | 0.509 | 0.27 | 0.206 | 0.194 | 0.176 | 0.133 | 0.285 | 0.256 | 0.31 | 0.233 | 0.203
NCI-H460 | 0.78 | 1.08 | 0.898 | 0.784 | 0.782 | 0.654 | 0.899 | 0.674 | 0.716 | 0.817 | 0.0965 | 0.111 | 0.13 | 0.0706 | 0.0375 | 0.612 | 0.461 | 0.504 | 0.252 | 0.134
NCI-H520 | 0.744 | 0.899 | 0.704 | 0.727 | 0.728 | 0.911 | 1.1 | 0.85 | 1.04 | 0.955 | 0.206 | 0.178 | 0.163 | 0.153 | 0.117 | 0.527 | 0.476 | 0.456 | 0.206 | 0.156
NCI-H647 | 0.941 | 1.15 | 0.993 | 0.957 | 1.25 | 1.08 | 1.36 | 1.04 | 1.29 | 1.22 | 0.398 | 0.294 | 0.196 | 0.0842 | 0.0654 | 0.487 | 0.292 | 0.188 | 0.116 | 0.14
NCI-H650 | 0.604 | 0.749 | 0.698 | 0.642 | 0.758 | 0.847 | 0.739 | 0.897 | 1.15 | 0.921 | 0.387 | 0.33 | 0.334 | 0.279 | 0.204 | 0.488 | 0.27 | 0.364 | 0.282 | 0.302
NCI-H661 | – | 0.941 | – | 0.977 | 0.942 | 0.583 | 0.567 | 0.544 | 0.491 | 0.646 | 0.415 | 0.379 | 0.368 | 0.342 | 0.332 | 0.574 | 0.532 | 0.501 | 0.346 | 0.324
NCI-H727 | 0.683 | 0.829 | 0.738 | 0.805 | 0.827 | 0.388 | 0.24 | 0.272 | 0.427 | 0.275 | – | 0.693 | 0.658 | 0.581 | 0.513 | – | 0.986 | 1.01 | 0.465 | 0.496
NCI-H838 | 0.773 | 0.841 | 0.809 | 0.824 | 0.743 | 0.965 | 1.03 | 1.02 | 0.997 | 0.928 | 0.2 | 0.186 | 0.151 | 0.142 | 0.117 | 0.603 | 0.446 | 0.4 | 0.289 | 0.286
NCI-H1355 | 1.06 | 1.04 | 1.12 | 1.02 | 1.05 | 0.787 | 0.783 | 0.81 | 0.684 | 0.826 | 0.406 | 0.368 | 0.352 | 0.255 | 0.174 | 0.382 | 0.35 | 0.338 | 0.267 | 0.253
